Patent US20230167093A1, “COMPOUNDS AND METHODS FOR MODULATING SPLICING” (REMIX THERAPEUTICS INC., priority 2020, published 2023)

Experiments:
Format in all cases: cell-based
[1] = tested on: SMN2 CJ mRNA; test: Gene panel canonical junction qPCR assay, SMN2; settings: protocol as above, concentration having 50% response in CJ decrease, read-out: SMN2 IC50 (decrease in CJ mRNA levels)
Description: Compounds described herein were used to modulate RNA transcript abundance in cells. The expression of a target mRNA was measured by detecting the formation of an exon-exon junction in the canonical transcript (CJ). A compound mediated exon-inclusion event was detected by observing an increase in formation of a new junction with an alternative exon (AJ). Real-time qPCR assays were used to detect these splicing switches and interrogate the potency of various compounds towards different target genes. A high-throughput real time quantitative PCR (RT-qPCR) assay was developed to measure these two isoforms of the mRNA (CJ and AJ) for an exemplary gene, HTT, together with a control housekeeping gene, GAPDH or GUSB or PPIA, used for normalization. Briefly, the A673 or K562 cell line was treated with various compounds described herein (e.g., compounds of Formula (I) or (II)). […]
(§1) The A673 cell line was cultured in DMEM with 10% FBS. Cells were diluted with full growth media and plated in a 96-well plate (15,000 cells in 100 ul media per well). The plate was incubated at 37° C. with 5% CO2 for 24 hours to allow cells to adhere. An 11-point 3-fold serial dilution of the compounds was made in DMSO then diluted in media in an intermediate plate. Compounds were transferred from the intermediate plate to the cell plate with the top dose at a final concentration of 10 uM in the well. Final DMSO concentration was kept at or below 0.25%. The cell plate was returned to the incubator at 37° C. with 5% CO2 for an additional 24 hours.
(§2) The K562 cell line was cultured in IMDM with 10% FBS. For K562, cells were diluted with full growth media and plated in either a 96-well plate (50,000 cells in 50 uL media per well) or a 384-well plate (8,000-40,000 cells in 45 uL media per well). An 11-point 3-fold serial dilution of the compounds were made in DMSO then diluted in media in an intermediate plate. Compound was transferred from the intermediate plate to the cell plate with the top dose at a final concentration of 10 uM in the well. Final DMSO concentration was kept at or below 0.25%. Final volume was 100 uL for 96-well plate and 50 uL for 384-well plate. The cell plate was then placed in an incubator at 37° C. with 5% CO2 for 24 hours.
(§3) The cells were then gently washed with 50 uL-100 uL cold PBS before proceeding to addition of lysis buffer. 30 uL-50 uL of room temperature lysis buffer with DNAse I (and optionally RNAsin) was added to each well. Cells were shaken/mixed thoroughly at room temperature for 5-10 minutes for lysis to take place and then 3 uL-5 uL of room temperature stop solution was added and wells were shaken/mixed again. After 2-5 minutes, the cell lysate plate was transferred to ice for RT-qPCR reaction setup. The lysates could also be frozen at −80° C. for later use.
(§4) In some cases, a direct lysis buffer was used. An appropriate volume of 3× lysis buffer (10 mM Tris, 150 mM NaCl, 1.5%-2.5% Igepal and 0.1-1 U/uL RNAsin, pH 7.4) was directly added to either K562 or A673 cells in media and mixed by pipetting 3 times. The plates were then incubated at room temperature with shaking/rocking for 20-50 minutes to allow for lysis to take place. After this time, the cell lysate plate was transferred to ice to set up for the RT-qPCR reactions. The lysates could also be frozen at −80° C. for later use.
(§5) To set up 10 uL RT-qPCR reactions, cell lysates were transferred to 384-well qPCR plates containing the master mix according to the table below. The plates were sealed, gently vortexed, and spun down before the run. The volumes were adjusted accordingly in some instances where the reaction was carried in 20 uL. The table below summarizes the components of the RT-qPCR reactions:
The RT-qPCR reaction was performed using a QuantStudio (ThermoFisher) under the following fast cycling conditions. All samples and standards were analyzed at least in duplicate. […]

[2] = tested on: HTT AJ mRNA; test: RT-qPCR splicing assay, HTT alternative junction (AJ) mRNA increase; settings: A673 or K562 cells, 24 hours compound treatment, top dose 10 uM; concentration having 50% response in AJ increase
Description: (§6) Compounds described herein were used to modulate RNA transcript abundance in cells. The expression of a target mRNA was measured by detecting the formation of an exon-exon junction in the canonical transcript (CJ). A compound mediated exon-inclusion event was detected by observing an increase in formation of a new junction with an alternative exon (AJ). Real-time qPCR assays were used to detect these splicing switches and interrogate the potency of various compounds towards different target genes. A high-throughput real time quantitative PCR (RT-qPCR) assay was developed to measure these two isoforms of the mRNA (CJ and AJ) for an exemplary gene, HTT, together with a control housekeeping gene, GAPDH or GUSB or PPIA, used for normalization. Briefly, the A673 or K562 cell line was treated with various compounds described herein (e.g., compounds of Formula (I) or (II)). After treatment, the levels of the HTT mRNA targets were determined from each sample of cell lysate by cDNA synthesis followed by qPCR.
as §1, §2, §3, §4, §5
(§7) The RT-qPCR reaction was performed using a QuantStudio (ThermoFisher) under the following fast cycling conditions. […]

[3] = tested on: Target C CJ mRNA; test: Gene panel canonical junction qPCR assay, Target C; settings: protocol as above, concentration having 50% response in CJ decrease, read-out: Target C IC50 (decrease in CJ mRNA levels)
Description: as §6, §1, §2, §3, §4, §5, §7

[4] = tested on: HTT CJ mRNA; test: RT-qPCR splicing assay, HTT canonical junction (CJ) mRNA decrease; settings: A673 or K562 cells, 24 hours compound treatment, top dose 10 uM; concentration having 50% response in CJ decrease
Description: as §6, §1, §2, §3, §4, §5, §7

[5] = tested on: HTT CJ mRNA; test: Gene panel canonical junction qPCR assay, HTT; settings: protocol as above, concentration having 50% response in CJ decrease, read-out: HTT IC50 (decrease in CJ mRNA levels)
Description: as §6, §1, §2, §3, §4, §5, §7

Compound | IC50 [1] | IC50 [3] | IC50 [5] | AC50 [2] | AC50 [4]
Cc1cc(-c2ccc3ncn(C4CCNCC4)c(=O)c3c2)cc2cn(C)nc12 [Compound 169, 6-(2,7-dimethyl-2H-indazol-5-yl)-3-(piperidin-4-yl)quinazolin-4(3H)-one] | > 10 µM | > 10 µM | > 10 µM | > 10 µM | > 10 µM
CN(c1ccc2ncn(-c3cc(F)c4nn(C)cc4c3)c(=O)c2c1)C1CCNCC1 [Compound 198, 3-(7-fluoro-2-methyl-2H-indazol-5-yl)-6-(methyl(piperidin-4-yl)amino)quinazolin-4(3H)-one] | > 10 µM | > 10 µM | > 10 µM | > 10 µM | > 10 µM
CN1CCN(c2ccc3ncn(-c4ccc5nn(C)cc5c4)c(=O)c3c2)CC1 [Compound 154, 3-(2-methyl-2H-indazol-5-yl)-6-(4-methylpiperazin-1-yl)quinazolin-4(3H)-one] | > 10 µM |  | > 10 µM | > 10 µM | > 10 µM
CN1CCC(Nc2ccc3ncn(-c4ccc5nn(C)cc5c4)c(=O)c3c2)CC1 [Compound 171, 3-(2-methyl-2H-indazol-5-yl)-6-((1-methylpiperidin-4-yl)amino)quinazolin-4(3H)-one] | > 10 µM | > 10 µM | > 10 µM | > 10 µM | > 10 µM
Cc1cn2cc(-n3cnc4ccc(N(C)C5CCNCC5)cc4c3=O)cc(F)c2n1 [Compound 200, 3-(8-fluoro-2-methylimidazo[1,2-a]pyridin-6-yl)-6-(methyl(piperidin-4-yl)amino)quinazolin-4(3H)-one] | > 10 µM | > 10 µM | > 10 µM | > 10 µM | > 10 µM
CN1[C@H]2CC[C@@H]1C=C(c1ccc3ncn(-c4ccc5nn(C)cc5c4)c(=O)c3c1)C2 [Compound 168, 3-(2-methyl-2H-indazol-5-yl)-6-((1R,5S)-8-methyl-8-azabicyclo[3.2.1]oct-2-en-3-yl)quinazolin-4(3H)-one] | > 10 µM | > 10 µM | > 10 µM | > 10 µM | > 10 µM
Cn1cc2cc(-n3cnc4ccc(N5CCNCC5)cc4c3=O)ccc2n1 [Compound 155, 3-(2-methyl-2H-indazol-5-yl)-6-(piperazin-1-yl)quinazolin-4(3H)-one] | > 10 µM |  | > 10 µM | > 10 µM | > 10 µM
Cc1cc(-c2ccc3ncn(C4CCN(C)CC4)c(=O)c3c2)cc2cn(C)nc12 [Compound 170, 6-(2,7-dimethyl-2H-indazol-5-yl)-3-(1-methylpiperidin-4-yl)quinazolin-4(3H)-one] | > 10 µM | > 10 µM | > 10 µM | > 10 µM | > 10 µM
Cn1cc2cc(-n3cnc4ccc(C5=CCNCC5)cc4c3=O)ccc2n1 [Compound 151, 3-(2-methyl-2H-indazol-5-yl)-6-(1,2,3,6-tetrahydropyridin-4-yl)quinazolin-4(3H)-one] | > 10 µM |  | > 10 µM | > 10 µM | > 10 µM
CN1CCC(N(C)c2ccc3ncn(-c4cc(F)c5nn(C)cc5c4)c(=O)c3c2)CC1 [Compound 199, 3-(7-fluoro-2-methyl-2H-indazol-5-yl)-6-(methyl(1-methylpiperidin-4-yl)amino)quinazolin-4(3H)-one] | > 10 µM | > 10 µM | > 10 µM | > 10 µM | > 10 µM

Continued, in another order:

IC50 [1] | IC50 [3] | IC50 [5] | Compound | AC50 [2] | AC50 [4]
> 10 µM | > 10 µM | > 10 µM | Cc1cc(-c2nc3cc(N4CCN(C)CC4)ccc3c(=O)[nH]2)cc2cn(C)nc12 [Compound 214, 2-(2,7-dimethyl-2H-indazol-5-yl)-7-(4-methylpiperazin-1-yl)quinazolin-4(3H)-one] | > 10 µM | > 10 µM
1 to 10 µM | 1 to 10 µM | 1 to 10 µM | Cc1cc(-c2ccc3c(=O)[nH]c(N4CCN(C)CC4)nc3c2)cc2cn(C)nc12 [Compound 212, 7-(2,7-dimethyl-2H-indazol-5-yl)-2-(4-methylpiperazin-1-yl)quinazolin-4(3H)-one] | 1 to 10 µM | 1 to 10 µM
1 to 10 µM | 1 to 10 µM | 1 to 10 µM | Cc1cn2nc(-n3cnc4ccc(N5CCN(C)CC5)cc4c3=O)cc(C)c2n1 [Compound 202, 3-(2,8-dimethylimidazo[1,2-b]pyridazin-6-yl)-6-(4-methylpiperazin-1-yl)quinazolin-4(3H)-one] | 1 to 10 µM | 1 to 10 µM
> 10 µM | > 10 µM | > 10 µM | Cc1cc(-c2nc3cc(N4CCNCC4)ccc3c(=O)[nH]2)cc2cn(C)nc12 [Compound 213, 2-(2,7-dimethyl-2H-indazol-5-yl)-7-(piperazin-1-yl)quinazolin-4(3H)-one] | > 10 µM | > 10 µM
> 10 µM | > 10 µM | > 10 µM | Cc1cn2cc(-n3cnc4ccc(N5CCNCC5)cc4c3=O)cc(F)c2n1 [Compound 195, 3-(8-fluoro-2-methylimidazo[1,2-a]pyridin-6-yl)-6-(piperazin-1-yl)quinazolin-4(3H)-one] | > 10 µM | > 10 µM
1 to 10 µM | 1 to 10 µM | 1 to 10 µM | Cc1cn2cc(-n3cnc4ccc(N5CCN(C)CC5)cc4c3=O)cc(F)c2n1 [Compound 197, 3-(8-fluoro-2-methylimidazo[1,2-a]pyridin-6-yl)-6-(4-methylpiperazin-1-yl)quinazolin-4(3H)-one] | 1 to 10 µM | 1 to 10 µM
> 10 µM | > 10 µM | > 10 µM | Cn1cc2cc(-n3cnc4ccc(N5CCNCC5)cc4c3=O)cc(F)c2n1 [Compound 196, 3-(7-fluoro-2-methyl-2H-indazol-5-yl)-6-(piperazin-1-yl)quinazolin-4(3H)-one] | > 10 µM | > 10 µM
1 to 10 µM | 1 to 10 µM | 1 to 10 µM | CN1CCN(c2ccc3ncn(-c4cc(F)c5nn(C)cc5c4)c(=O)c3c2)CC1 [Compound 194, 3-(7-fluoro-2-methyl-2H-indazol-5-yl)-6-(4-methylpiperazin-1-yl)quinazolin-4(3H)-one] | 1 to 10 µM | 1 to 10 µM
